Experimental data: PMC5659893 (2017)

Test: second and third wash supernates of 1×10^8 RBCs/mL
Conditions: human, 37°C, up to 24 hours

Substance | not cleaved
ILPWKWPWWPWRR-NH2 | more than 90% recovered after 24 hours
RRGWALRLVLAY-NH2 | more than 90% recovered after 24 hours
